Assay results reported in US12157730B2, “Heteroaryl derivative, method for producing same, and pharmaceutical composition comprising same as effective component” (VORONOI INC., priority 2019, dated 2024).

Biological target: T1, Ba/F3 cell EGFR Exon20 ins NPH (Homo sapiens, UniProt P00533, INS773NPH)
T1 construct: expressed in transfected cells; host or cells: Ba/F3
Test: Ba/F3 cell proliferation suppression, EGFR Exon20 ins NPH
Type: cell-based
Details: GI50 class; Ba/F3 cell line with NPH inserted at Exon20 of EGFR; 72 hours
Outline: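 After 72 h compound exposure (twelve 3-fold steps, 0.3 nM–50 um final), live cells were measured by CellTiter-Glo luminescence and growth expressed as % of control to derive GI50. Cells were seeded at 3000–5000 per well a day earlier; Ba/F3 medium contained IL-3; three repeats.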

Ba/F3 (NPH) Activity, A (GI50 < 50 nM):
C=CC(=O)Nc1cc(Nc2cc(N3OCC[C@@H]3c3cccc(Cl)c3C)ncn2)c(OC)cc1N1CCC(N2C[C@H]3C[C@@H]2CO3)CC1 [compound 532, N-(2-(4-((1R,4R)-2-oxa-5-azabicyclo[2.2.1]heptane-5-yl)piperidine-1-yl)-5-((6-((R)-3-(3-chloro-2-methylphenyl)isoxazolidine-2-yl)pyrimidine-4-yl)amino)-4-methoxyphenyl) acrylamide]
C=CC(=O)Nc1cc(Nc2cc(N3OCC[C@@H]3c3cccc(Cl)c3C)ncn2)c(OC)cc1N1CCN(C)CC1 [compound 584, N-(5-((6-((R)-3-(3-chloro-2-methylphenyl)isoxazolidine-2-yl)pyrimidine-4-yl)amino)-4-methoxy-2-(4-methylpiperazine-1-yl)phenyl)acrylamide]
C=CC(=O)Nc1cc(Nc2cc(N3OCC[C@@H]3c3cccc(F)c3F)ncn2)c(OC)cc1N1CCO[C@H](C)C1 [compound 889, N-(5-((6-((R)-3-(2,3-difluorophenyl)isoxazolidine-2-yl)pyrimidine-4-yl)amino)-4-methoxy-2-((R)-2-methylmorpholino)phenyl)acrylamide]
C=CC(=O)Nc1cc(Nc2cc(N3OCC[C@@H]3c3cc(F)ccc3F)ncn2)c(OC)cc1N1CCC(N2C[C@@H](C)N(CC)[C@@H](C)C2)CC1 [compound 841, N-(5-((6-((R)-3-(2,5-difluorophenyl)isoxazolidine-2-yl)pyrimidine-4-yl)amino)-2-(4-((3S,5R)-4-ethyl-3,5-dimethylpiperazine-1-yl)piperidine-1-yl)-4-methoxyphenyl) acrylamide]
C=CC(=O)Nc1cc(Nc2cc(N3OCC[C@@H]3c3cccc(Cl)c3)ncn2)c(OC)cc1N1CCC(N2CCN(C3CC3)CC2)CC1 [Example 138, N-(5-((6-((R)-3-(3-chlorophenyl)isoxazolidine-2-yl)pyrimidine-4-yl)amino)-2-(4-(4-cyclopropylpiperazine-1-yl)piperidine-1-yl)-4-methoxyphenyl) acrylamide]
C=CC(=O)Nc1cc(Nc2cc(N3OCC[C@@H]3Cc3ccccc3)ncn2)c(OC)cc1N1C[C@H]2C[C@@H]1CO2 [compound 957, N-(5-((6-((S)-3-benzylisoxazolidine-2-yl)pyrimidine-4-yl)amino)-2-((1R,4R)-2-oxa-5-azabicyclo [2.2.1]heptane-5-yl)-4-methoxyphenyl) acrylamide]
C=CC(=O)Nc1cc(Nc2cc(N3OCC[C@@H]3c3ccc(Cl)c(Cl)c3)ncn2)c(OC)cc1N1CCC(N2C[C@H]3C[C@@H]2CO3)CC1 [compound 690]
C=CC(=O)Nc1cc(Nc2cc(N3OCC[C@@H]3c3cccc(Cl)c3Cl)ncn2)c(OC)cc1N1CCC(N2CCN(C(C)C)CC2)CC1 [compound 609, N-(5-((6-((R)-3-(2,3-dichlorophenyl)isoxazolidine-2-yl)pyrimidine-4-yl)amino)-2-(4-(4-isopropylpiperazine-1-yl)piperidine-1-yl)-4-methoxyphenyl) acrylamide]
C=CC(=O)Nc1cc(Nc2cc(N3OCC[C@@H]3Cc3ccccc3)ncn2)c(OC)cc1N1CCC(N2CCN(C)CC2)CC1 [compound 963, N-(5-((6-((S)-3-benzylisoxazolidine-2-yl)pyrimidine-4-yl)amino)-4-methoxy-2-(4-(4-methylpiperazine-1-yl)piperidine-1-yl)phenyl)acrylamide]
C=CC(=O)Nc1cc(Nc2cc(N3OCC[C@@H]3c3ccc(F)cc3F)ncn2)c(OC)cc1N1CCC(N2CCC(N3CCN(C)CC3)CC2)CC1 [compound 477, N-(5-((6-((R)-3-(2,4-difluorophenyl)isoxazolidine-2-yl)pyrimidine-4-yl)amino)-4-methoxy-2-(4-(4-methylpiperazine-1-yl)-[1,4'-bipiperidine]-1'-yl)phenyl)acrylamide]
C=CC(=O)Nc1cc(Nc2cc(N3OCC[C@@H]3c3cc(F)ccc3F)ncn2)c(OC)cc1N1CCOCC1 [compound 825, N-(5-((6-((R)-3-(2,5-difluorophenyl)isoxazolidine-2-yl)pyrimidine-4-yl)amino)-4-methoxy-2-morpholinophenyl) acrylamide]
C=CC(=O)Nc1cc(Nc2cc(N3OCC[C@@H]3c3ccc(Cl)c(Cl)c3)ncn2)c(OC)cc1N1C[C@H]2C[C@@H]1CN2C [compound 674, N-(5-((6-((R)-3-(3,4-dichlorophenyl)isoxazolidine-2-yl)pyrimidine-4-yl)amino)-4-methoxy-2-((1R,4R)-5-methyl-2,5-diazabicyclo[2.2.1]heptane-2-yl)phenyl) acrylamide]
C=CC(=O)Nc1cc(Nc2cc(N3OCC[C@@H]3c3cccc(Cl)c3F)ncn2)c(OC)cc1N1CCC(N2C[C@H](C)N(C3CC3)C[C@@H]2C)CC1 [Example 128, N-(5-((6-((R)-3-(3-chloro-2-fluorophenyl)isoxazolidine-2-yl)pyrimidine-4-yl)amino)-2-(4-((2S,5S)-4-cyclopropyl-2,5-dimethylpiperazine-1-yl)piperidine-1-yl)-4-methoxyphenyl) acrylamide]
C=CC(=O)Nc1cc(Nc2cc(N3OCC[C@@H]3Cc3ccccc3)ncn2)c(OC)cc1N1CCC(N2CCOCC2)CC1 [compound 965, N-(5-((6-((S)-3-benzylisoxazolidine-2-yl)pyrimidine-4-yl)amino)-4-methoxy-2-(4-morpholinopiperidine-1-yl)phenyl)acrylamide]
C=CC(=O)Nc1cc(Nc2cc(N3OCC[C@@H]3c3ccc(Cl)cc3)ncn2)c(OC)cc1N1CCC(N(C)C)CC1 [compound 805, N-(5-((6-((R)-3-(4-chlorophenyl)isoxazolidine-2-yl)pyrimidine-4-yl)amino)-2-(4-(dimethylamino)piperidine-1-yl)-4-methoxyphenyl) acrylamide]
C#Cc1cccc([C@H]2CCON2c2cc(Nc3cc(NC(=O)C=C)c(N4CCC(N5CCN(C)CC5)CC4)cc3OC)ncn2)c1 [compound 649, N-(5-((6-((R)-3-(3-ethynylphenyl)isoxazolidine-2-yl)pyrimidine-4-yl)amino)-4-methoxy-2-(4-(4-methylpiperazine-1-yl)piperidine-1-yl)phenyl) acrylamide]
C=CC(=O)Nc1cc(Nc2cc(N3OCC[C@@H]3c3cccc(F)c3)ncn2)c(OC)cc1N1CCC(N2C[C@H]3C[C@@H]2CO3)CC1 [Example 243, N-(2-(4-((1R,4R)-2-oxa-5-azabicyclo[2.2.1]heptane-5-yl)piperidine-1-yl)-5-((6-((R)-3-(3-fluorophenyl)isoxazolidine-2-yl)pyrimidine-4-yl)amino)-4-methoxyphenyl) acrylamide]
C=CC(=O)Nc1cc(Nc2cc(N3OCC[C@@H]3c3cc(F)ccc3F)ncn2)c(OC)cc1N1CCC(N2CCC(F)(F)CC2)CC1 [compound 817, N-(2-(4,4-difluoro-[1,4'-bipiperidine]-1'-yl)-5-((6-((R)-3-(2,5-difluorophenyl)isoxazolidine-2-yl)pyrimidine-4-yl)amino)-4-methoxyphenyl) acrylamide]
C=CC(=O)Nc1cc(Nc2cc(N3OCC[C@@H]3c3cccc(C)c3F)ncn2)c(OC)cc1N1CCC(N2CCC(N(C)C)CC2)CC1 [compound 420, N-(2-(4-(dimethylamino)-[1,4'-bipiperidine]-1'-yl)-5-((6-((R)-3-(2-fluoro-3-methylphenyl)isoxazolidine-2-yl)pyrimidine-4-yl)amino)-4-methoxyphenyl) acrylamide]
C=CC(=O)Nc1cc(Nc2cc(N3OCC[C@@H]3c3cccc(Cl)c3F)ncn2)c(OC)cc1N1CCC(N2CCN(C)CC2)CC1 [compound 747, N-(5-((6-((R)-3-(3-chloro-2-fluorophenyl)isoxazolidine-2-yl)pyrimidine-4-yl)amino)-4-methoxy-2-(4-(4-methylpiperazine-1-yl)piperidine-1-yl)phenyl) acrylamide]

Ba/F3 (NPH) Activity, B (50 nM ≤ GI50 < 500 nM):
C=CC(=O)Nc1cc(Nc2cc(N3OCC[C@@H]3c3ccc4ccccc4c3)ncn2)c(OC)cc1N1CCC(N2CCN(C(C)C)CC2)CC1 [compound 550, N-(2-(4-(4-isopropylpiperazine-1-yl)piperidine-1-yl)-4-methoxy-5-((6-((R)-3-(naphthalene-2-yl)isoxazolidine-2-yl)pyrimidine-4-yl)amino)phenyl)acrylamide]
C=CC(=O)Nc1cc(Nc2cc(N3OCC[C@@H]3Cc3cccc(N(C)C)c3)ncn2)c(OC)cc1N1CCC(N2C[C@H]3C[C@@H]2CO3)CC1 [compound 1047, N-(2-(4-((1R,4R)-2-oxa-5-azabicyclo [2.2.1]heptane-5-yl)piperidine-1-yl)-5-((6-((S)-3-(3-(dimethylamino)benzyl)isoxazolidine-2-yl)pyrimidine-4-yl)amino)-4-methoxyphenyl) acrylamide]

Ba/F3 (NPH) Activity, C (500 nM ≤ GI50 < 5000 nM):
C=CC(=O)Nc1cc(Nc2cc(N3OCC[C@H]3c3c(F)cccc3F)ncn2)c(OC)cc1N1CCC(N2CCN(C)[C@@H](C)C2)CC1 [compound 313, N-(5-((6-((S)-3-(2,6-difluorophenyl)isoxazolidine-2-yl)pyrimidine-4-yl)amino)-2-(4-((S)-3,4-dimethylpiperazine-1-yl)piperidine-1-yl)-4-methoxyphenyl) acrylamide]
